Assay results: PubChem BioAssay (NCI)
≈ marks a conversion by molar mass, not a printed value.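 Protocol summary: plate cells (96-well), add compound at 5 concentrations, incubate 48 h, interpolate endpoints linearly. GI50 is the concentration that inhibits growth by half. The concentration for full growth arrest is given as TGI.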

Tests used:
Experiment in all cases: NCI anticancer screen, dose series, 48 h; in the data active means GI50 below about 0.43 µM; inactive means the rest
OVCAR-8 ovarian = test system: OVCAR-8 ovarian
RXF 393 renal = test system: RXF 393 renal
UACC-257 melanoma = test system: UACC-257 melanoma
OVCAR-4 ovarian = test system: OVCAR-4 ovarian
SN12C renal = test system: SN12C renal
MCF7 breast = test system: MCF7 breast
MDA-MB-435 = test system: MDA-MB-435
SK-OV-3 ovarian = test system: SK-OV-3 ovarian
HT29 colon = test system: HT29 colon
HL-60(TB) leukemia = test system: HL-60(TB) leukemia
A549 NSCLC = test system: A549 NSCLC
SF-268 CNS = test system: SF-268 CNS
UACC-62 melanoma = test system: UACC-62 melanoma
MALME-3M melanoma = test system: MALME-3M melanoma
HOP-92 NSCLC = test system: HOP-92 NSCLC
DU-145 prostate = test system: DU-145 prostate
SK-MEL-28 melanoma = test system: SK-MEL-28 melanoma
TK-10 renal = test system: TK-10 renal
HOP-62 NSCLC = test system: HOP-62 NSCLC
COLO 205 colon = test system: COLO 205 colon
NCI-H23 lung = test system: NCI-H23 lung
CCRF-CEM leukemia = test system: CCRF-CEM leukemia
KM12 colon = test system: KM12 colon
786-0 renal = test system: 786-0 renal
MOLT-4 leukemia = test system: MOLT-4 leukemia
LOX IMVI melanoma = test system: LOX IMVI melanoma
SF-295 CNS = test system: SF-295 CNS
SNB-75 CNS = test system: SNB-75 CNS
T-47D breast = test system: T-47D breast
HCC-2998 colon = test system: HCC-2998 colon
SR leukemia = test system: SR leukemia
MDA-N = test system: MDA-N
IGROV1 ovarian = test system: IGROV1 ovarian
PC-3 prostate = test system: PC-3 prostate
SW-620 colon = test system: SW-620 colon
M14 melanoma = test system: M14 melanoma
MDA-MB-231 breast = test system: MDA-MB-231 breast
RPMI-8226 leukemia = test system: RPMI-8226 leukemia
CAKI-1 renal = test system: CAKI-1 renal
HCT-15 colon = test system: HCT-15 colon
SK-MEL-5 melanoma = test system: SK-MEL-5 melanoma
NCI-H522 lung = test system: NCI-H522 lung
HS 578T breast = test system: HS 578T breast
NCI/ADR-RES ovarian = test system: NCI/ADR-RES ovarian
A498 renal = test system: A498 renal
OVCAR-5 ovarian = test system: OVCAR-5 ovarian
SK-MEL-2 melanoma = test system: SK-MEL-2 melanoma
NCI-H226 lung = test system: NCI-H226 lung
K-562 leukemia = test system: K-562 leukemia
OVCAR-3 ovarian = test system: OVCAR-3 ovarian
SF-539 CNS = test system: SF-539 CNS
U251 CNS = test system: U251 CNS
SNB-19 CNS = test system: SNB-19 CNS
ACHN renal = test system: ACHN renal
NCI-H460 lung = test system: NCI-H460 lung
HCT-116 colon = test system: HCT-116 colon
EKVX NSCLC = test system: EKVX NSCLC

COc1ccc(C2=C(OC(C)=O)c3cccn3-c3ccccc3S2)cc1
7.73 µM: TGI (NCI-H23 lung)
8.53 µM: TGI (COLO 205 colon)
6.44 µM: TGI (RXF 393 renal)
1.44 µM: TGI (MDA-N)
4.57 µM: TGI (HL-60(TB) leukemia)
0.877 µM: TGI (MDA-MB-435)
> 10 µM: TGI (OVCAR-8 ovarian) | TGI (UACC-257 melanoma) | TGI (OVCAR-4 ovarian) | TGI (SN12C renal) | TGI (MCF7 breast) | TGI (SK-OV-3 ovarian) | TGI (HT29 colon) | TGI (A549 NSCLC) | TGI (SF-268 CNS) | TGI (UACC-62 melanoma) | TGI (MALME-3M melanoma) | TGI (HOP-92 NSCLC) | TGI (DU-145 prostate) | TGI (SK-MEL-28 melanoma) | TGI (TK-10 renal) | TGI (HOP-62 NSCLC) | TGI (CCRF-CEM leukemia) | TGI (KM12 colon) | TGI (786-0 renal) | TGI (MOLT-4 leukemia) | TGI (LOX IMVI melanoma) | TGI (SNB-75 CNS) | TGI (T-47D breast) | TGI (HCC-2998 colon) | TGI (SR leukemia) | TGI (IGROV1 ovarian) | TGI (PC-3 prostate) | TGI (SW-620 colon) | TGI (M14 melanoma) | TGI (MDA-MB-231 breast) | TGI (RPMI-8226 leukemia) | TGI (CAKI-1 renal) | TGI (HCT-15 colon) | TGI (SK-MEL-5 melanoma)
5.03 µM: TGI (SF-295 CNS)

NC1=C(c2nc(-c3cc4ccccc4oc3=O)cs2)C(c2ccco2)c2c(c3ccccc3oc2=O)O1 (stereo unspecified)
81.1 µg/mL: TGI (HOP-62 NSCLC)
71.3 µg/mL: TGI (786-0 renal)
131 µg/mL: TGI (NCI-H226 lung)
139 µg/mL: TGI (HS 578T breast)
> 150 µg/mL: TGI (NCI-H522 lung) | TGI (NCI/ADR-RES ovarian) | TGI (OVCAR-8 ovarian) | TGI (A498 renal) | TGI (UACC-257 melanoma) | TGI (OVCAR-4 ovarian) | TGI (SN12C renal) | TGI (MCF7 breast) | TGI (MDA-MB-435) | TGI (SK-OV-3 ovarian) | TGI (HT29 colon) | TGI (OVCAR-5 ovarian) | TGI (HL-60(TB) leukemia) | TGI (A549 NSCLC) | TGI (SF-268 CNS) | TGI (UACC-62 melanoma) | TGI (MALME-3M melanoma) | TGI (HOP-92 NSCLC) | TGI (DU-145 prostate) | TGI (SK-MEL-28 melanoma) | TGI (K-562 leukemia) | TGI (COLO 205 colon) | TGI (NCI-H23 lung) | TGI (KM12 colon) | TGI (OVCAR-3 ovarian) | TGI (SF-539 CNS) | TGI (MOLT-4 leukemia) | TGI (SNB-19 CNS) | TGI (LOX IMVI melanoma) | TGI (SF-295 CNS) | TGI (T-47D breast) | TGI (HCC-2998 colon) | TGI (SR leukemia) | TGI (MDA-N) | TGI (ACHN renal) | TGI (NCI-H460 lung) | TGI (HCT-116 colon) | TGI (IGROV1 ovarian) | TGI (PC-3 prostate) | TGI (SW-620 colon) | TGI (M14 melanoma) | TGI (MDA-MB-231 breast) | TGI (CAKI-1 renal) | TGI (HCT-15 colon) | TGI (SK-MEL-5 melanoma) | TGI (EKVX NSCLC)
114 µg/mL: TGI (RXF 393 renal)
112 µg/mL: TGI (SK-MEL-2 melanoma)
147 µg/mL: TGI (CCRF-CEM leukemia)
58.4 µg/mL: TGI (U251 CNS)
inactive: GI50 (NCI-H522 lung) > 150 µg/mL | GI50 (HS 578T breast) 39.6 µg/mL (≈ 77.9 µM) | GI50 (NCI/ADR-RES ovarian) > 150 µg/mL | GI50 (OVCAR-8 ovarian) > 150 µg/mL | GI50 (RXF 393 renal) 17.3 µg/mL (≈ 34 µM) | GI50 (A498 renal) 66.1 µg/mL (≈ 130 µM) | GI50 (UACC-257 melanoma) > 150 µg/mL | GI50 (OVCAR-4 ovarian) 68.3 µg/mL (≈ 134 µM) | GI50 (SN12C renal) > 150 µg/mL | GI50 (MCF7 breast) > 150 µg/mL | GI50 (MDA-MB-435) > 150 µg/mL | GI50 (SK-OV-3 ovarian) 51.4 µg/mL (≈ 101 µM) | GI50 (HT29 colon) > 150 µg/mL | GI50 (OVCAR-5 ovarian) > 150 µg/mL | GI50 (SK-MEL-2 melanoma) 43.6 µg/mL (≈ 85.8 µM) | GI50 (NCI-H226 lung) 43.1 µg/mL (≈ 84.8 µM) | GI50 (HL-60(TB) leukemia) > 150 µg/mL | GI50 (A549 NSCLC) > 150 µg/mL | GI50 (SF-268 CNS) 68.4 µg/mL (≈ 135 µM) | GI50 (UACC-62 melanoma) 112 µg/mL (≈ 220 µM) | GI50 (MALME-3M melanoma) 120 µg/mL (≈ 235 µM) | GI50 (HOP-92 NSCLC) 53.3 µg/mL (≈ 105 µM) | GI50 (DU-145 prostate) > 150 µg/mL | GI50 (SK-MEL-28 melanoma) > 150 µg/mL | GI50 (TK-10 renal) 46.4 µg/mL (≈ 91.3 µM) | GI50 (HOP-62 NSCLC) 22.4 µg/mL (≈ 44 µM) | GI50 (K-562 leukemia) 95.9 µg/mL (≈ 188 µM) | GI50 (COLO 205 colon) > 150 µg/mL | GI50 (NCI-H23 lung) > 150 µg/mL | GI50 (CCRF-CEM leukemia) 53.8 µg/mL (≈ 106 µM) | GI50 (KM12 colon) > 150 µg/mL | GI50 (OVCAR-3 ovarian) > 150 µg/mL | GI50 (SF-539 CNS) 96.9 µg/mL (≈ 190 µM) | GI50 (786-0 renal) 20.2 µg/mL (≈ 39.8 µM) | GI50 (U251 CNS) 21.7 µg/mL (≈ 42.6 µM) | GI50 (MOLT-4 leukemia) 119 µg/mL (≈ 235 µM) | GI50 (SNB-19 CNS) 53.1 µg/mL (≈ 104 µM) | GI50 (LOX IMVI melanoma) > 150 µg/mL | GI50 (SF-295 CNS) 130 µg/mL (≈ 255 µM) | GI50 (T-47D breast) > 150 µg/mL | GI50 (HCC-2998 colon) > 150 µg/mL | GI50 (SR leukemia) 51.9 µg/mL (≈ 102 µM) | GI50 (MDA-N) > 150 µg/mL | GI50 (ACHN renal) 36.3 µg/mL (≈ 71.3 µM) | GI50 (NCI-H460 lung) > 150 µg/mL | GI50 (HCT-116 colon) > 150 µg/mL | GI50 (IGROV1 ovarian) > 150 µg/mL | GI50 (PC-3 prostate) > 150 µg/mL | GI50 (SW-620 colon) > 150 µg/mL | GI50 (M14 melanoma) 100 µg/mL (≈ 197 µM) | GI50 (MDA-MB-231 breast) 75.7 µg/mL (≈ 149 µM) | GI50 (CAKI-1 renal) > 150 µg/mL | GI50 (HCT-15 colon) > 150 µg/mL | GI50 (SK-MEL-5 melanoma) > 150 µg/mL | GI50 (EKVX NSCLC) 69.7 µg/mL (≈ 137 µM)
87.6 µg/mL: TGI (TK-10 renal)
